# Laboratory results from US20060069132A1, “Azolecarboxamide herbicides” (priority 2004, published 2006).
# Tests used:
# large crabgrass = test: Test B pre-/postemergence herbicide test; assay type: in vivo, Digitaria sanguinalis
# Procedure, shortened: (§1)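 Response was scored visually 13 to 15 days after treatment against untreated greenhouse controls, 0 meaning no effect and 100 complete control. Formulations (solvent mixture plus surfactant) went onto soil after planting, onto foliage of 1- to 4-leaf plants, and onto 2-leaf plants in a flooded paddy set including rice and barnyardgrass.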
# barnyardgrass [1] = test: Test C flooded paddy test; assay type: in vivo, Echinochloa crus-galli
# Experimental: (§2) At the same time, plants selected from these crop and weed species and also winter barley (Hordeum vulgare L.), blackgrass (Alopecurus myosuroides Huds.), canarygrass (Phalaris minor Retz.), chickweed (Stellaria media (L.) Vill.), downy bromegrass (Bromus tectorum L.), green foxtail (Setaria viridis (L.) Beauv.), Italian ryegrass (Lolium multiflorum Lam.), wheat (Triticum aestivum L.), wild oat (Avenafatua L.) and windgrass (Apera spica-venti (L.) Beauv.) were treated with postemergence applications of some of the test chemicals formulated in the same manner. Plants ranged in height from 2 to 18 cm (1- to 4-leaf stage) for postemergence treatments. Plant species in the flooded paddy test consisted of rice (Oryza sativa), smallflower umbrella sedge (Cyperus difformis L.), ducksalad (Heteranthera limosa (Sw.) Willd.) and barnyardgrass (Echinochloa crus-galli (L.) Beauv.) grown to the 2-leaf stage for testing. Treated plants and controls were maintained in a greenhouse for 12 to 14 days, after which time all species were compared to controls and visually evaluated. Plant response ratings, summarized in Table C, are based on a scale of 0 to 100 where 0 is no effect and 100 is complete control. A dash (-) response means no test result.
# ducksalad [2] = test: Test B flooded paddy test; assay type: in vivo, Heteranthera limosa; details: scale 0 to 100 (0 no effect, 100 complete control)
# Procedure, shortened: (§3)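 Postemergence plants were sprayed with formulated test chemicals at 2 to 18 cm height (1- to 4-leaf stage); paddy species were grown to the 2-leaf stage. After 13 to 15 days in a greenhouse, injury was rated visually against untreated controls on a 0–100 scale (0 = no effect, 100 = complete control).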
# rice [3] = test: Test C flooded paddy test; assay type: in vivo, Oryza sativa
# Experimental: as §2
# giant foxtail = test: Test B pre-/postemergence herbicide test; assay type: in vivo, Setaria faberi
# Procedure, shortened: as §1
# corn = test: Test B pre-/postemergence herbicide test; assay type: in vivo, Zea mays
# Procedure, shortened: as §1
# ducksalad [4] = test: Test C flooded paddy test; assay type: in vivo, Heteranthera limosa
# Experimental: as §2
# [5] = tested on: smallflower umbrella sedge; test: Test C flooded paddy test; assay type: in vivo, Cyperus difformis
# Experimental: as §2
# barnyardgrass [6] = test: Test B flooded paddy test; assay type: in vivo, Echinochloa crus-galli; details: scale 0 to 100 (0 no effect, 100 complete control)
# Procedure, shortened: as §3
# pigweed = test: Test B pre-/postemergence herbicide test; assay type: in vivo, Amaranthus retroflexus
# Procedure, shortened: as §1
# velvetleaf = test: Test B pre-/postemergence herbicide test; assay type: in vivo, Abutilon theophrasti
# Procedure, shortened: as §1
# barnyardgrass [7] = test: Test B pre-/postemergence herbicide test; assay type: in vivo, Echinochloa crus-galli
# Procedure, shortened: (§4)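 Seeds were planted and treated preemergence with compounds formulated in a non-phytotoxic solvent mixture containing surfactant, while plants at the 1- to 4-leaf stage (2 to 18 cm) received postemergence sprays. Flooded paddy plants were grown to the 2-leaf stage. After 13 to 15 days in a greenhouse, injury was visually rated 0–100 against untreated controls.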
# morningglory = test: Test B pre-/postemergence herbicide test; assay type: in vivo, Ipomoea coccinea
# Procedure, shortened: as §4
# Surinam grass = test: Test B pre-/postemergence herbicide test; assay type: in vivo, Urochloa decumbens
# Procedure, shortened: as §1
# lambsquarters = test: Test B pre-/postemergence herbicide test; assay type: in vivo, Chenopodium album
# Procedure, shortened: as §1
# cocklebur = test: Test B pre-/postemergence herbicide test; assay type: in vivo, Xanthium strumarium
# Procedure, shortened: as §4
# rice [8] = test: Test B flooded paddy test; assay type: in vivo, Oryza sativa; details: scale 0 to 100 (0 no effect, 100 complete control)
# Procedure, shortened: as §3
# wheat = test: Test B postemergence herbicide test; assay type: in vivo, Triticum aestivum; parameters: key to Wheat plant response rating: 0 = no effect, 100 = complete control
# Procedure, shortened: (§5)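 Read-out: visual comparison with controls, scored 0 to 100, where 100 means complete control and 0 no effect. Formulated chemicals were applied postemergence to plants 2–18 cm tall (1- to 4-leaf), or to flooded-paddy plants at the 2-leaf stage, then held 13 to 15 days under glass.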
# blackgrass = test: Test B postemergence herbicide test; assay type: in vivo, Alopecurus myosuroides
# Procedure, shortened: as §3
# [9] = tested on: small flower umbrella sedge; test: Test B flooded paddy test; assay type: in vivo, Cyperus difformis; details: scale 0 to 100 (0 no effect, 100 complete control)
# Procedure, shortened: as §3
# wild oat = test: Test B postemergence herbicide test; assay type: in vivo, Avena fatua
# Procedure, shortened: as §5
# [10] = 125 g ai/ha, 0 is no effect, 100 is complete control, preemergence
# [11] = 125 g ai/ha, visual rating, scale 0 (no effect) to 100 (complete control), postemergence
# [12] = 500 g ai/ha, visual rating, 0 = no effect, 100 = complete control, preemergence
# [13] = postemergence, 500 g ai/ha, scale 0 to 100, 0 is no effect, 100 is complete control
# [14] = 125 g ai/ha, scale 0 to 100 (0 no effect, 100 complete control)
# [15] = 250 g ai/ha, scale of 0 to 100, 0 is no effect, 100 is complete control
# [16] = 500 g ai/ha, visual rating after 12 to 14 days, scale 0 to 100 (0 no effect, 100 complete control)
# [17] = Postemergence, 500 g ai/ha, scale 0 (no effect) to 100 (complete control)
# [18] = postemergence, 125 g ai/ha, scale 0 to 100
# [19] = Postemergence, 125 g ai/ha, scale 0 (no effect) to 100 (complete control)
# [20] = 500 g ai/ha, scale 0 to 100, 0 no effect, 100 complete control, preemergence
smiles,measurement,setting,value
CCOC(=O)c1ccc(F)c(NC(=O)C2CN(C(C)(C)C)N=C2CC)c1 (racemic) [Compound 335],"Plant response rating (0 to 100 scale), Crabgrass, Large",large crabgrass; [10],50
same,"Crabgrass, Large plant response rating",large crabgrass; [11],10
same,"Plant response rating, Crabgrass, Large",large crabgrass; [12],100
same,"Crabgrass, Large plant response rating",large crabgrass; [13],40
same,Barnyardgrass plant response rating,"barnyardgrass [1]; 62 g ai/ha, scale 0 to 100 (0 no effect, 100 complete control)",10
same,Barnyardgrass plant response rating,barnyardgrass [1]; [14],25
same,Barnyardgrass plant response rating,barnyardgrass [1]; [15],40
same,"Plant response rating, Barnyardgrass",barnyardgrass [1]; [16],65
same,Ducksalad plant response rating,ducksalad [2]; 1000 g ai/ha,90
same,Rice plant response rating,"rice [3]; 62 g ai/ha, scale 0 to 100",25
same,Rice plant response rating,rice [3]; [14],25
same,Rice plant response rating,rice [3]; [15],55
same,"Plant response rating, Rice",rice [3]; [16],55
same,"Plant response rating (0 to 100 scale), Foxtail, Giant",giant foxtail; [10],60
same,"Foxtail, Giant plant response rating",giant foxtail; [11],20
same,"Plant response rating, Foxtail, Giant",giant foxtail; [12],90
same,"Foxtail, Giant plant response rating",giant foxtail; [13],40
same,"Plant response rating (0 to 100 scale), Corn",corn; [10],30
same,Corn plant response rating,corn; [11],10
same,"Plant response rating, Corn",corn; [12],50
same,Corn plant response rating,corn; [13],20
same,Ducksalad plant response rating,"ducksalad [4]; 62 g ai/ha, scale 0 to 100",0
same,Ducksalad plant response rating,ducksalad [4]; [14],35
same,Ducksalad plant response rating,ducksalad [4]; [15],50
same,"Plant response rating, Ducksalad",ducksalad [4]; [16],70
same,"Sedge, Umbrella plant response rating","[5]; 62 g ai/ha, scale 0 to 100",45
same,"Sedge, Umbrella plant response rating",[5]; [14],85
same,"Sedge, Umbrella plant response rating",[5]; [15],90
same,"Plant response rating, Sedge, Umbrella",[5]; [16],95
same,Barnyardgrass plant response rating,barnyardgrass [6]; 1000 g ai/ha,60
same,"Plant response rating (0 to 100 scale), Pigweed",pigweed; [10],0
same,Pigweed plant response rating,pigweed; [11],20
same,"Plant response rating, Pigweed",pigweed; [12],10
same,Pigweed plant response rating,pigweed; [13],70
same,"Plant response rating (0 to 100 scale), Velvetleaf",velvetleaf; [10],40
same,Velvetleaf plant response rating,velvetleaf; [11],30
same,Velvetleaf plant response rating,velvetleaf; [13],60
same,"Plant response rating (0 to 100 scale), Barnyardgrass",barnyardgrass [7]; [10],50
same,Barnyardgrass plant response rating,barnyardgrass [7]; [11],0
same,"Plant response rating, Barnyardgrass",barnyardgrass [7]; [12],60
same,Barnyardgrass plant response rating,barnyardgrass [7]; [13],50
same,"Plant response rating (0 to 100 scale), Morningglory",morningglory; [10],0
same,Morningglory plant response rating,morningglory; [11],10
same,"Plant response rating, Morningglory",morningglory; [12],10
same,Morningglory plant response rating,morningglory; [13],40
same,"Plant response rating (0 to 100 scale), Surinam Grass",Surinam grass; [10],30
same,Surinam Grass plant response rating,Surinam grass; [11],10
same,"Plant response rating, Surinam Grass",Surinam grass; [12],40
same,Surinam Grass plant response rating,Surinam grass; [13],30
same,"Plant response rating (0 to 100 scale), Lambsquarters",lambsquarters; [10],0
same,Lambsquarters plant response rating,lambsquarters; [11],10
same,"Plant response rating, Lambsquarters",lambsquarters; [12],10
same,Lambsquarters plant response rating,lambsquarters; [13],30
same,"Plant response rating (0 to 100 scale), Cocklebur",cocklebur; [10],0
same,Cocklebur plant response rating,cocklebur; [11],10
same,"Plant response rating, Cocklebur",cocklebur; [12],10
same,Cocklebur plant response rating,cocklebur; [13],70
same,Rice plant response rating,rice [8]; 1000 g ai/ha,70
same,Wheat plant response rating,wheat; [11],10
same,Wheat plant response rating,wheat; [13],20
same,Blackgrass plant response rating,blackgrass; [11],10
same,Blackgrass plant response rating,blackgrass; [13],30
same,"Sedge, Umbrella plant response rating",[9]; 1000 g ai/ha,80
same,"Oat, Wild plant response rating",wild oat; [11],20
same,"Oat, Wild plant response rating",wild oat; [13],40
C=CCNC(=O)c1ccc(F)c(N(C(C)=O)C(=O)c2cc(C(C)(C)C)nn2CC)c1 [Compound 443],"Crabgrass, Large plant response rating",large crabgrass; [17],30
same,"Crabgrass, Large plant response rating",large crabgrass; [18],20
same,Ducksalad plant response rating,ducksalad [2]; 125 g ai/ha,70
same,"Foxtail, Giant plant response rating",giant foxtail; [17],40
same,"Foxtail, Giant plant response rating",giant foxtail; [18],30
same,Corn plant response rating,corn; [17],20
same,Corn plant response rating,corn; [18],20
same,Barnyardgrass plant response rating,barnyardgrass [6]; 125 g ai/ha,80
same,Pigweed plant response rating,pigweed; [17],80
same,Pigweed plant response rating,pigweed; [18],60
same,Velvetleaf plant response rating,velvetleaf; [17],50
same,Velvetleaf plant response rating,velvetleaf; [18],50
same,Barnyardgrass plant response rating,barnyardgrass [7]; [19],20
same,Barnyardgrass plant response rating,barnyardgrass [7]; [17],30
same,Morningglory plant response rating,morningglory; [17],60
same,Morningglory plant response rating,morningglory; [18],50
same,Surinam Grass plant response rating,Surinam grass; [17],20
same,Surinam Grass plant response rating,Surinam grass; [18],20
same,Lambsquarters plant response rating,lambsquarters; [17],80
same,Lambsquarters plant response rating,lambsquarters; [18],70
same,Cocklebur plant response rating,cocklebur; [17],80
same,Cocklebur plant response rating,cocklebur; [18],50
same,Rice plant response rating,rice [8]; 125 g ai/ha,70
same,Wheat plant response rating,wheat; [20],100
same,Wheat plant response rating,wheat; [17],50
same,Wheat plant response rating,wheat; [18],40
same,Blackgrass plant response rating,blackgrass; [17],40
same,Blackgrass plant response rating,blackgrass; [18],30
same,"Sedge, Umbrella plant response rating",[9]; 125 g ai/ha,80
same,"Oat, Wild plant response rating",wild oat; [17],60
same,"Oat, Wild plant response rating",wild oat; [18],40
C=Cc1nn(C(C)(C)C)nc1C(=O)Nc1cccc(C(=O)N(C)C)c1 [Compound 445],"Crabgrass, Large plant response rating",large crabgrass; [17],40
same,"Crabgrass, Large plant response rating",large crabgrass; [18],30
same,Ducksalad plant response rating,ducksalad [2]; 125 g ai/ha,80
same,"Foxtail, Giant plant response rating",giant foxtail; [17],30
same,"Foxtail, Giant plant response rating",giant foxtail; [18],30
same,Corn plant response rating,corn; [17],40
same,Corn plant response rating,corn; [18],20
same,Barnyardgrass plant response rating,barnyardgrass [6]; 125 g ai/ha,90
same,Pigweed plant response rating,pigweed; [17],60
same,Pigweed plant response rating,pigweed; [18],50
same,Velvetleaf plant response rating,velvetleaf; [17],50
same,Velvetleaf plant response rating,velvetleaf; [18],50
same,Barnyardgrass plant response rating,barnyardgrass [7]; [19],30
same,Barnyardgrass plant response rating,barnyardgrass [7]; [17],40
same,Morningglory plant response rating,morningglory; [17],80
same,Morningglory plant response rating,morningglory; [18],60
same,Surinam Grass plant response rating,Surinam grass; [17],30
same,Surinam Grass plant response rating,Surinam grass; [18],20
same,Lambsquarters plant response rating,lambsquarters; [17],80
same,Lambsquarters plant response rating,lambsquarters; [18],60
same,Cocklebur plant response rating,cocklebur; [17],80
same,Cocklebur plant response rating,cocklebur; [18],40
same,Rice plant response rating,rice [8]; 125 g ai/ha,80
same,Wheat plant response rating,wheat; [20],100
same,Wheat plant response rating,wheat; [17],50
same,Wheat plant response rating,wheat; [18],30
same,Blackgrass plant response rating,blackgrass; [17],50
same,Blackgrass plant response rating,blackgrass; [18],40
same,"Sedge, Umbrella plant response rating",[9]; 125 g ai/ha,80
same,"Oat, Wild plant response rating",wild oat; [17],60
same,"Oat, Wild plant response rating",wild oat; [18],40
